From patent US7696197B2, “Use of a phenothiazine derivative for preventing and/or treating hearing loss” (Societe de Conseils de Recherches et d'Applications …, priority 2004, dated 2010)

Test system: neuromast acoustic hair cells
Experiment: Ototoxicity induced by gentamicin in zebrafish, DASPEI staining of neuromast acoustic hair cells
Type: in vivo
Details: 24 hours, fish aged 5 days
From the text: Zebrafish display the sensory organs on the surface of their bodies, called neuromasts. In these fish, the neuromast acoustic hair cells can be stained with DASPEI and this staining reflects the number of acoustic hair cells. These acoustic hair cells are structurally and functionally similar to the internal acoustic hair cells of the human ear.
Damage to the internal acoustic hair cells is induced in zebrafish by gentamicin. In order to test the effect of compound (1) on the protection of the acoustic hair cells damaged by gentamicin, the compound (1) was administered as a co-treatment with gentamicin. The internal acoustic hair cells are then stained and quantified.
The study is undertaken on fish aged 5 days incubated with 1 μg/ml of gentamicin for 24 hours in the presence or in the absence of compound (1). Controls are carried out in parallel; single vehicle (1% DMSO; positive control). The fish treated with gentamicin are the negative controls.
DASPEI (2,4-dimethyl-aminostyryl-N-ethyl pyridinium iodide) staining is carried out in order to visualize the acoustic hair cells in vivo (n=5 per group). Morphometric analysis is used in order to quantify the staining signal of the acoustic hair cells. The signal for DASPEI staining of the positive controls was defined as 100%. […]

gentamicin
DASPEI staining signal of acoustic hair cells, % of the control signal (gentamicin 1 μg/ml alone (negative control)): 31.5±4.2% | loss of the acoustic hair cells following treatment with gentamicin (gentamicin 1 μg/ml alone): 68.5±4.9%
